Data from PubChem BioAssay AID248 (DTP/NCI, 2004).
Several values for one entry are separate records, joined by “and”; a condition that tells them apart may be missing. Equal values may be shown once. Toxic doses and inconclusive results are not listed.

Tested on: L1210 leukemia ip in BDF1 mice, survival T/C
Experiment: NCI In Vivo Anticancer Drug Screen. Data for tumor model L1210 Leukemia (intraperitoneal) in B6D2F1 (BDF1) mice
Conditions: endpoint: mean survival time, higher = longer survival
Outline: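 Value reflects the ratio of survival in compound-treated mice to survival in vehicle-treated controls, with both groups carrying the same transplanted tumor.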

[1] = dose: 100.0 mg/kg/injection, schedule: Q01DX001 (ip), vehicle: saline
[2] = dose: 200.0 mg/kg/injection, schedule: Q01DX001 (ip), vehicle: saline
[3] = dose: 400.0 mg/kg/injection, schedule: Q01DX001 (ip), vehicle: saline
[4] = dose: 50.0 mg/kg/injection, schedule: Q01DX001 (ip), vehicle: saline
[5] = dose: 100.0 mg/kg/injection, schedule: Q01DX001 (ip), vehicle: carboxymethylcellulose (CMC)
[6] = dose: 200.0 mg/kg/injection, schedule: Q01DX001 (ip), vehicle: carboxymethylcellulose (CMC)
[7] = dose: 400.0 mg/kg/injection, schedule: Q01DX001 (ip), vehicle: carboxymethylcellulose (CMC)

`CC(=O)n1[nH]c(=O)c2ccccc2c1=O` was tested, and the T/C (dose: 100.0 mg/kg/injection, schedule: Q01DX001 (ip), vehicle: Klucel (hydroxypropylcellulose) (HPC)) was 103 % of control, the T/C (dose: 200.0 mg/kg/injection, schedule: Q01DX001 (ip), vehicle: Klucel (hydroxypropylcellulose) (HPC)) was 105 % of control and the T/C (dose: 400.0 mg/kg/injection, schedule: Q01DX001 (ip), vehicle: Klucel (hydroxypropylcellulose) (HPC)) was 103 % of control.
`CCOC(=O)NC12c3ccccc3C(c3ccccc31)C(C(=O)O)C2C(=O)O` (configuration not stated) was tested, and the T/C (dose: 100.0 mg/kg/injection, schedule: Q04DX003 (ip), vehicle: saline sonified) was 90 % of control, the T/C (dose: 200.0 mg/kg/injection, schedule: Q04DX003 (ip), vehicle: saline sonified) was 119 % of control and the T/C (dose: 400.0 mg/kg/injection, schedule: Q04DX003 (ip), vehicle: saline sonified) was 90 % of control.
`c1ccc(C[Si](Cc2ccccc2)Cc2ccccc2)cc1` was tested, and the T/C [1] was 105 % of control, the T/C (dose: 100.0 mg/kg/injection, schedule: Q01DX009 (ip), vehicle: saline) was 88 % of control and the T/C [2] was 90 % of control. The T/C (dose: 200.0 mg/kg/injection, schedule: Q01DX009 (ip), vehicle: saline) was 88 % of control, the T/C [3] was 104 % of control and the T/C (dose: 400.0 mg/kg/injection, schedule: Q01DX009 (ip), vehicle: saline) was 90 % of control.
In the case of `CCOP(=O)(OCC)OCc1ccccc1`, the T/C (dose: 12.5 mg/kg/injection, schedule: Q04DX003 (ip), vehicle: saline with Tween-80) is reported as 98 % of control.
In the case of `CC1CCCCN1C(CC(=O)c1ccccc1)C(=O)c1ccccc1` (configuration not stated), the T/C [4] is reported as 97 % of control, the T/C [1] is reported as 95 % of control and the T/C [2] is reported as 101 % of control. For the same compound, the T/C [3] was 101 % of control.
For `O=C(NC1CCCCC1)N(O)C12CC3CC(CC(C3)C1)C2`, the T/C (dose: 100.0 mg/kg/injection, schedule: Q01DX001 (ip), vehicle: saline with Tween-80) was 108 % of control, the T/C (dose: 200.0 mg/kg/injection, schedule: Q01DX001 (ip), vehicle: saline with Tween-80) was 92 % of control and the T/C (dose: 400.0 mg/kg/injection, schedule: Q01DX001 (ip), vehicle: saline with Tween-80) was 95 % of control.
With `COc1ccccc1[As](=O)(O)CC(O)COc1ccccc1` (configuration not stated) the T/C (dose: 25.0 mg/kg/injection, schedule: Q04DX003 (ip), vehicle: saline with Tween-80) was 91 % of control.
In the case of `O=c1cc(-c2ccccc2)sc(-c2ccccc2)c1`, the T/C (dose: 75.0 mg/kg/injection, schedule: Q04DX003 (ip), vehicle: saline) is reported as 100 % of control, the T/C (dose: 100.0 mg/kg/injection, schedule: Q04DX003 (ip), vehicle: Klucel (hydroxypropylcellulose) (HPC)) is reported as 103 % of control and the T/C (dose: 150.0 mg/kg/injection, schedule: Q04DX003 (ip), vehicle: saline) is reported as 95 % of control. The T/C (dose: 200.0 mg/kg/injection, schedule: Q04DX003 (ip), vehicle: Klucel (hydroxypropylcellulose) (HPC)) was 105 % of control, the T/C (dose: 300.0 mg/kg/injection, schedule: Q04DX003 (ip), vehicle: saline) was 92 % of control and the T/C (dose: 400.0 mg/kg/injection, schedule: Q04DX003 (ip), vehicle: Klucel (hydroxypropylcellulose) (HPC)) was 103 % of control.
For `N#CCCc1ccc(O)cc1`, the T/C (dose: 50.0 mg/kg/injection, schedule: Q01DX009 (ip), vehicle: gum acacia) was 100 % of control, the T/C (dose: 100.0 mg/kg/injection, schedule: Q01DX009 (ip), vehicle: gum acacia) was 107 % of control and the T/C (dose: 100.0 mg/kg/injection, schedule: Q04DX003 (ip), vehicle: gum acacia) was 97 % of control. The T/C (dose: 200.0 mg/kg/injection, schedule: Q01DX009 (ip), vehicle: gum acacia) was 93 % of control and the T/C (dose: 200.0 mg/kg/injection, schedule: Q04DX003 (ip), vehicle: gum acacia) was 97 % of control.
`CCCCCC#CCCCCl` was tested, and the T/C (dose: 50.0 mg/kg/injection, schedule: Q01DX001 (ip), vehicle: carboxymethylcellulose (CMC)) was 101 % of control, the T/C (dose: 50.0 mg/kg/injection, schedule: Q01DX009 (ip), vehicle: carboxymethylcellulose (CMC)) was 95 % of control and 97 % of control and the T/C (dose: 50.0 mg/kg/injection, schedule: Q04DX003 (ip), vehicle: carboxymethylcellulose (CMC)) was 98 % of control. For the same compound, the T/C [5] was 96 % of control, the T/C (dose: 100.0 mg/kg/injection, schedule: Q01DX009 (ip), vehicle: carboxymethylcellulose (CMC)) was 93 % of control and 95 % of control and the T/C (dose: 100.0 mg/kg/injection, schedule: Q04DX002 (ip), vehicle: carboxymethylcellulose (CMC)) was 95 % of control and 97 % of control. For the same compound, the T/C (dose: 100.0 mg/kg/injection, schedule: Q04DX003 (ip), vehicle: carboxymethylcellulose (CMC)) was 102 % of control, the T/C [6] was 91 % of control and the T/C (dose: 200.0 mg/kg/injection, schedule: Q01DX009 (ip), vehicle: carboxymethylcellulose (CMC)) was 95 % of control. For the same compound, the T/C (dose: 200.0 mg/kg/injection, schedule: Q04DX002 (ip), vehicle: carboxymethylcellulose (CMC)) was 100 % of control and 107 % of control and the T/C (dose: 200.0 mg/kg/injection, schedule: Q04DX003 (ip), vehicle: carboxymethylcellulose (CMC)) was 94 % of control.
In the case of `CS(=O)(=O)Nc1ccc(Nc2c3ccccc3nc3ccccc23)cc1`, the T/C (dose: 10.0 mg/kg/injection, schedule: Q01DX009 (sc), vehicle: saline) is reported as 108 % of control, the T/C (dose: 12.5 mg/kg/injection, schedule: Q01DX001 (ip), vehicle: saline) is reported as 101 % of control and the T/C (dose: 20.0 mg/kg/injection, schedule: Q01DX009 (ip), vehicle: saline) is reported as 161 % of control. The T/C (dose: 20.0 mg/kg/injection, schedule: Q01DX009 (sc), vehicle: saline) was 116 % of control, the T/C (dose: 25.0 mg/kg/injection, schedule: Q01DX001 (ip), vehicle: saline) was 119 % of control and the T/C (dose: 40.0 mg/kg/injection, schedule: Q01DX009 (ip), vehicle: saline) was 107 % of control. The T/C [4] was 104 % of control, the T/C (dose: 117.0 mg/kg/injection, schedule: Q01DX009 (ip), vehicle: carboxymethylcellulose (CMC)) was 97 % of control and the T/C (dose: 176.0 mg/kg/injection, schedule: Q01DX001 (ip), vehicle: carboxymethylcellulose (CMC)) was 151 % of control. The T/C (dose: 176.0 mg/kg/injection, schedule: Q01DX009 (ip), vehicle: carboxymethylcellulose (CMC)) was 100 % of control, the T/C (dose: 240.0 mg/kg/injection, schedule: Q04DX003 (ip), vehicle: Klucel (hydroxypropylcellulose) (HPC)) was 156 % of control and the T/C (dose: 264.0 mg/kg/injection, schedule: Q01DX001 (ip), vehicle: carboxymethylcellulose (CMC)) was 161 % of control. The T/C (dose: 266.0 mg/kg/injection, schedule: Q01DX001 (ip), vehicle: carboxymethylcellulose (CMC)) was 158 % of control, the T/C [7] was 150 % of control and the T/C (dose: 600.0 mg/kg/injection, schedule: Q01DX001 (ip), vehicle: carboxymethylcellulose (CMC)) was 179 % of control and 253 % of control.
In the case of `CCOC(=O)C1C=NC([N+](=O)[O-])=C1Br` (configuration not stated), the T/C (dose: 25.0 mg/kg/injection, schedule: Q04DX002 (ip), vehicle: Klucel (hydroxypropylcellulose) (HPC)) is reported as 102 % of control, the T/C (dose: 50.0 mg/kg/injection, schedule: Q04DX002 (ip), vehicle: Klucel (hydroxypropylcellulose) (HPC)) is reported as 109 % of control and the T/C (dose: 100.0 mg/kg/injection, schedule: Q04DX002 (ip), vehicle: Klucel (hydroxypropylcellulose) (HPC)) is reported as 103 % of control and 105 % of control. For the same compound, the T/C (dose: 400.0 mg/kg/injection, schedule: Q04DX002 (ip), vehicle: Klucel (hydroxypropylcellulose) (HPC)) was 93 % of control.
`CN(C)c1ccc(C(=O)NO)cc1` was tested, and the T/C (dose: 100.0 mg/kg/injection, schedule: Q01DX009 (ip), vehicle: Klucel (hydroxypropylcellulose) (HPC)) was 97 % of control, the T/C (dose: 200.0 mg/kg/injection, schedule: Q01DX009 (ip), vehicle: Klucel (hydroxypropylcellulose) (HPC)) was 105 % of control and the T/C (dose: 400.0 mg/kg/injection, schedule: Q01DX009 (ip), vehicle: Klucel (hydroxypropylcellulose) (HPC)) was 100 % of control.
In the case of `O=C(Nc1c(Cl)cc2c(c1Cl)Cc1cc([N+](=O)[O-])ccc1-2)C(Cl)Cl`, the T/C [5] is reported as 98 % of control, the T/C [6] is reported as 102 % of control and the T/C [7] is reported as 98 % of control.
With `c1ccc(C(c2ccccc2)n2cc[n+](C(c3ccccc3)c3ccccc3)c2)cc1` the T/C (dose: 12.5 mg/kg/injection, schedule: Q04DX002 (ip), vehicle: gum acacia) was 96 % of control and the T/C (dose: 25.0 mg/kg/injection, schedule: Q04DX002 (ip), vehicle: gum acacia) was 114 % of control.
`FC(F)(F)c1ccc2c(c1)N(CCCN1CCN(CC[n+]3ccccc3)CC1)c1ccccc1S2` was tested, and the T/C (dose: 1.56 mg/kg/injection, schedule: Q01DX009 (ip), vehicle: saline) was 95 % of control, the T/C (dose: 3.12 mg/kg/injection, schedule: Q01DX009 (ip), vehicle: saline) was 95 % of control and the T/C (dose: 6.25 mg/kg/injection, schedule: Q01DX009 (ip), vehicle: saline) was 110 % of control. The T/C (dose: 9.2 mg/kg/injection, schedule: Q01DX009 (ip), vehicle: saline) was 120 % of control, the T/C (dose: 12.5 mg/kg/injection, schedule: Q04DX003 (ip), vehicle: saline) was 101 % of control and the T/C (dose: 14.0 mg/kg/injection, schedule: Q01DX009 (ip), vehicle: saline) was 109 % of control. The T/C (dose: 25.0 mg/kg/injection, schedule: Q04DX003 (ip), vehicle: saline) was 97 % of control.
